Activity calls are given as the source filed them.
Legend:
Format in all cases: functional
[1] = biological target: Calcium/calmodulin-dependent protein kinase type II subunit delta (Homo sapiens, UniProt Q13557)
[2] = biological target: Phosphorylase b kinase gamma catalytic chain, liver/testis isoform (Homo sapiens, UniProt P15735);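 note: PHKG2 measured as one member of a kinome-wide kinase panel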
[3] = biological target: Calcium/calmodulin-dependent protein kinase type II subunit beta (Homo sapiens, UniProt Q13554)
Calcium/calmodulin-dependent protein kinase type II subunit beta, sequence (Q13554 whole entry): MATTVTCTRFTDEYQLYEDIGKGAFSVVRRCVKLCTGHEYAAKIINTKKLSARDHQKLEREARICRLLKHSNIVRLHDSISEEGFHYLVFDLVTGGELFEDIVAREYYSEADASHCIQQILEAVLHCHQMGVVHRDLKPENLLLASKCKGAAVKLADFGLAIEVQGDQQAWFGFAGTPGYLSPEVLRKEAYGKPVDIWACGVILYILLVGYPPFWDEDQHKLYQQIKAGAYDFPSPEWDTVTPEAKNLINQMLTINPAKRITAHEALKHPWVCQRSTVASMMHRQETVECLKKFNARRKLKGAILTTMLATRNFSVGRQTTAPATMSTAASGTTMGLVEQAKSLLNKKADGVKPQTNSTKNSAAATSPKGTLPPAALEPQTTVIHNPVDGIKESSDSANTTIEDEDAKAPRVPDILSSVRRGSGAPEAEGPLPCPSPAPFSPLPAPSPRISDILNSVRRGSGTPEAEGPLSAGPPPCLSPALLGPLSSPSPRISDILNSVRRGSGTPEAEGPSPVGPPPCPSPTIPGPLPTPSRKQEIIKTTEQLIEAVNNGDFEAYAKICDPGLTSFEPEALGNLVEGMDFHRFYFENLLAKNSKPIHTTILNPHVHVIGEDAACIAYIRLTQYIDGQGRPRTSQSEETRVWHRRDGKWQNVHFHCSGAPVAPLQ

[4] = biological target: Ribosomal protein S6 kinase beta-1 (Homo sapiens, UniProt P23443);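 note: measured as one member of a kinome-wide profiling panel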
Ribosomal protein S6 kinase beta-1, sequence (P23443 whole entry): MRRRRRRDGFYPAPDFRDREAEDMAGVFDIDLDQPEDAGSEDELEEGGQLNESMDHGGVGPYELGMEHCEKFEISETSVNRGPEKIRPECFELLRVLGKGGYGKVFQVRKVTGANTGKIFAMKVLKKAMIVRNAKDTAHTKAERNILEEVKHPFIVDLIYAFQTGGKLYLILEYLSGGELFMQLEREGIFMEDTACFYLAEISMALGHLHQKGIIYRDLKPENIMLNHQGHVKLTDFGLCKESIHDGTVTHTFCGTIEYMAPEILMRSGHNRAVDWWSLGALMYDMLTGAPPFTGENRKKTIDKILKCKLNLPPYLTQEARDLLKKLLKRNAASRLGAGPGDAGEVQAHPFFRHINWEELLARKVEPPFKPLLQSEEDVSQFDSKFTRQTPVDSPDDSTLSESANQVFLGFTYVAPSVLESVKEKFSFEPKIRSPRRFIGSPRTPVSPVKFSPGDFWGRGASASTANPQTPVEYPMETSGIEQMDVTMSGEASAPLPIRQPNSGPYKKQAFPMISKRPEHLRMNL

[5] = biological target: Serine/threonine-protein kinase Chk2 (Homo sapiens, UniProt O96017);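 note: CHEK2 entry within a kinome-wide screening panel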
Serine/threonine-protein kinase Chk2, sequence (O96017 whole entry): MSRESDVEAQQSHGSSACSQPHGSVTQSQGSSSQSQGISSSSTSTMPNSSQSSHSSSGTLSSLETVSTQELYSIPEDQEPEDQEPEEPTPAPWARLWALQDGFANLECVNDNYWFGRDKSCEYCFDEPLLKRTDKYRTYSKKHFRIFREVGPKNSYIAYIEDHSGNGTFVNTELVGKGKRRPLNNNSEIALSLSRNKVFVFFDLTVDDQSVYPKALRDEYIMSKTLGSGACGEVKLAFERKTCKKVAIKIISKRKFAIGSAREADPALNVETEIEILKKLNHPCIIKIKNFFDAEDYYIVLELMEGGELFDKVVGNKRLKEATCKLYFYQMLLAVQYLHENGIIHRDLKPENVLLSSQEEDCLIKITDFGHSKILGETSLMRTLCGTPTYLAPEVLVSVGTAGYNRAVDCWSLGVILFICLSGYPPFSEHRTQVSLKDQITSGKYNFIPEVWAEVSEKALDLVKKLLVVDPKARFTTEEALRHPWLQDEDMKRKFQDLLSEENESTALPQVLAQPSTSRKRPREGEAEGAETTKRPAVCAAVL

[6] = biological target: Tyrosine-protein kinase Fer (Homo sapiens, UniProt P16591);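 note: FER tested as one member of a kinome panel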
Tyrosine-protein kinase Fer, sequence (P16591 whole entry): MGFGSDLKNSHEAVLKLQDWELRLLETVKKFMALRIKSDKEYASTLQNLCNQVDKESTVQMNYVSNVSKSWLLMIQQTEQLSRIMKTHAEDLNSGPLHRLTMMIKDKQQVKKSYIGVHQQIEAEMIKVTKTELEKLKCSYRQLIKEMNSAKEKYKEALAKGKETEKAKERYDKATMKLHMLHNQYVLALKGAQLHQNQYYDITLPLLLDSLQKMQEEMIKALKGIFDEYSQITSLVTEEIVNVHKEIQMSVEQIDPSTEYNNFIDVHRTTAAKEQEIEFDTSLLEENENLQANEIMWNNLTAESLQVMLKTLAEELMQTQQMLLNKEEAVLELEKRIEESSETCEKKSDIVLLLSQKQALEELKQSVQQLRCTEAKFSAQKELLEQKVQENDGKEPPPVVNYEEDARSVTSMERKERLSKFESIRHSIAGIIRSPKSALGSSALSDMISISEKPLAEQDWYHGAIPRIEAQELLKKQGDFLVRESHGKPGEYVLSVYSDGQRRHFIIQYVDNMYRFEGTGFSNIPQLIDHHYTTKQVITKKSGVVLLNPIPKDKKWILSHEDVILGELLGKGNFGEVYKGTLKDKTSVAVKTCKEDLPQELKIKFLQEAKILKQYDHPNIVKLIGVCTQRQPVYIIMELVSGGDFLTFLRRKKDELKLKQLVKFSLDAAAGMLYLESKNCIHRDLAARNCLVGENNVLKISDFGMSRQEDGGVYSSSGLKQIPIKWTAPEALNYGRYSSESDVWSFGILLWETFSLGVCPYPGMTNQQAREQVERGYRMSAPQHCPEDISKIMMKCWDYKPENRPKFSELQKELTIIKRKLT

[7] = biological target: Homeodomain-interacting protein kinase 4 (Homo sapiens, UniProt Q8NE63)
Homeodomain-interacting protein kinase 4, sequence (Q8NE63 whole entry): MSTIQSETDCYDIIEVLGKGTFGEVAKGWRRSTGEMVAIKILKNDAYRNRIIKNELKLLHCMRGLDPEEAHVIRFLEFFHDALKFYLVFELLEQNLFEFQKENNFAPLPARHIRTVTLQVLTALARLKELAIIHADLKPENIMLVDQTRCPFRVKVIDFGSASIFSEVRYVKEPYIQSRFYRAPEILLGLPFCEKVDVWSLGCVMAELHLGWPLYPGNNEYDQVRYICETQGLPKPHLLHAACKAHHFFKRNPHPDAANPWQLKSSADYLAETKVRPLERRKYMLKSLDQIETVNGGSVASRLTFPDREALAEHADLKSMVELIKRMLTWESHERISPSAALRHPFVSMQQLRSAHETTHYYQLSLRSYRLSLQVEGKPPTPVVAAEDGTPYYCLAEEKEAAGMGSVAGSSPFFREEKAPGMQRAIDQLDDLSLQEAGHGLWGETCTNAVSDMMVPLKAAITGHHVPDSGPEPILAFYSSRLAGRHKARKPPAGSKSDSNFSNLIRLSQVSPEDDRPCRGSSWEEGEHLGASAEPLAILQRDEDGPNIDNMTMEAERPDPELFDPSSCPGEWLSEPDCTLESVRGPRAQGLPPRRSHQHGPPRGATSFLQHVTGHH

[8] = biological target: Dual specificity tyrosine-phosphorylation-regulated kinase 1A (Homo sapiens, UniProt Q13627);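 note: measured against DYRK1A as one member of a broad kinome profiling panel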
[9] = biological target: Dual specificity tyrosine-phosphorylation-regulated kinase 1B (Homo sapiens, UniProt Q9Y463); assay: Navigating the Kinome. Panel member name: DYRK1B
[10] = biological target: Inhibitor of nuclear factor kappa-B kinase subunit epsilon (Homo sapiens, UniProt Q14164); assay: Navigating the Kinome. Panel member name: IKBKE
Inhibitor of nuclear factor kappa-B kinase subunit epsilon, sequence (Q14164 whole entry): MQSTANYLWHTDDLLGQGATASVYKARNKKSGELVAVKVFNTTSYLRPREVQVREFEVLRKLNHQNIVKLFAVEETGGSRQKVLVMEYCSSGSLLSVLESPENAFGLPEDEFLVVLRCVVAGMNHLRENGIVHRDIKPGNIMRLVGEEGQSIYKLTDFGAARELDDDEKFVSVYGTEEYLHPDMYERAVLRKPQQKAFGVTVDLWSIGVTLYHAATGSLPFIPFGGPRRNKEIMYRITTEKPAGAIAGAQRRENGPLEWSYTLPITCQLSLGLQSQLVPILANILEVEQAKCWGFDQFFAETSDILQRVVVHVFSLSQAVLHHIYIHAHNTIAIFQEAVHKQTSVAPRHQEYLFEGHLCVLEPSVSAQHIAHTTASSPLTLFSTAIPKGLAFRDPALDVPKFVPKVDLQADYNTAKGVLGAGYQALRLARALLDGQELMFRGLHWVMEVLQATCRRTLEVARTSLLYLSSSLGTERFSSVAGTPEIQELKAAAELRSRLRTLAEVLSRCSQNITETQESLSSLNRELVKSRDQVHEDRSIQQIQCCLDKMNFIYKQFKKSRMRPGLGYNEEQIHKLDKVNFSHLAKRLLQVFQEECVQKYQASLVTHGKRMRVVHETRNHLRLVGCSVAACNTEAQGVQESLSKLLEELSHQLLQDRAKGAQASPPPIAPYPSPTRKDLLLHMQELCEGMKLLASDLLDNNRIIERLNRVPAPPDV

[11] = biological target: T1, Sentrin-specific protease 6 (Homo sapiens, UniProt Q9GZR1);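 note: Luminescence-based dose-response confirmatory assay of SENP6 inhibition, following up an ultra-high-throughput screen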
T1 sequence (Q9GZR1 whole entry): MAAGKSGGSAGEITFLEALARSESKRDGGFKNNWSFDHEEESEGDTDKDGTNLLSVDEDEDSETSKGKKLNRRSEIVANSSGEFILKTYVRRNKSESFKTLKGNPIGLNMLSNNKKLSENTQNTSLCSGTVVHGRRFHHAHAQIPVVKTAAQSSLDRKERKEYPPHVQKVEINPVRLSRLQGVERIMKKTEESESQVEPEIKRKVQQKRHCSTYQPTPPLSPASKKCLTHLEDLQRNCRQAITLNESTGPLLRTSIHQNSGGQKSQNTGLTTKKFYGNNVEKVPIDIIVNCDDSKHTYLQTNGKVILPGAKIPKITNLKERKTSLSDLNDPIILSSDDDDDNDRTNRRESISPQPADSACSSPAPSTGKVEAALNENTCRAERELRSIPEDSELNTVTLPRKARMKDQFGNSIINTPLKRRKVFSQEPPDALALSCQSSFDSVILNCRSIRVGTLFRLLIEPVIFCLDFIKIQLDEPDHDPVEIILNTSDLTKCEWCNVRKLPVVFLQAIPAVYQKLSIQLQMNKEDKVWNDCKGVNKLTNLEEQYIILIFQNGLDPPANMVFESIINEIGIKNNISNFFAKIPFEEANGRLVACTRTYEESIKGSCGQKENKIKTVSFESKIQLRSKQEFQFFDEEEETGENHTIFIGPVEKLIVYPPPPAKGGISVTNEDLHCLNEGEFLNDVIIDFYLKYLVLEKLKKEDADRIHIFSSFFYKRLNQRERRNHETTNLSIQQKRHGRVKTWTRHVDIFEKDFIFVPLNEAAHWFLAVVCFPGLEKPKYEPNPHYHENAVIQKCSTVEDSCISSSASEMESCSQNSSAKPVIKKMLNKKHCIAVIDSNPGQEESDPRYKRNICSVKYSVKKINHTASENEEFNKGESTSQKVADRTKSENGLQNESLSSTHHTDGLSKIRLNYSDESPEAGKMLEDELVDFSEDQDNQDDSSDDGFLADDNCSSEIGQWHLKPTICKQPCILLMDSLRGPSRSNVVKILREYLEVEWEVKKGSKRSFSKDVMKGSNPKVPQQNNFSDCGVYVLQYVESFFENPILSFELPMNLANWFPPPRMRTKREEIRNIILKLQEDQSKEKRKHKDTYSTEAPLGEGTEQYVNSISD

[12] = biological target: T2, Sentrin-specific protease 8 (Homo sapiens, UniProt Q96LD8);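 note: luminescence read-out of SENP8 inhibition, dose-response confirmation following an ultra-high-throughput screen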
T2 sequence (Q96LD8 whole entry): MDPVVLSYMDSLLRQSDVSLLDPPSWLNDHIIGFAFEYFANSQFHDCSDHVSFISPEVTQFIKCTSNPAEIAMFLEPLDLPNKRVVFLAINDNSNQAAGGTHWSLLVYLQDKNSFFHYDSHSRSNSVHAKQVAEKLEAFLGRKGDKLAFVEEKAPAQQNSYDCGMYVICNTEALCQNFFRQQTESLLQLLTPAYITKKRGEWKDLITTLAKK

Phosphorylase b kinase gamma catalytic chain, liver/testis isoform, sequence (P15735 whole entry, canonical isoform): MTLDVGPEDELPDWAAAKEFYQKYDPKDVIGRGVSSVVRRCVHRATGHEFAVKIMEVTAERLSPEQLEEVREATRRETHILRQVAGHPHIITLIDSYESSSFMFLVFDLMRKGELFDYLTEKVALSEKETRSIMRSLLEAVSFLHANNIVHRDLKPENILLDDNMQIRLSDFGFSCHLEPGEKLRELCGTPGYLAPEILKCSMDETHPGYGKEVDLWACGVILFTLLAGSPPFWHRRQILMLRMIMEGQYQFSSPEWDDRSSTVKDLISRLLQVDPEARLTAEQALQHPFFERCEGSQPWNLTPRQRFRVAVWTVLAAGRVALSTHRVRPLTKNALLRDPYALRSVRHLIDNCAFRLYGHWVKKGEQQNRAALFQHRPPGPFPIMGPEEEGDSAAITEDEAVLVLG
Calcium/calmodulin-dependent protein kinase type II subunit delta, sequence (Q13557 whole entry, canonical isoform): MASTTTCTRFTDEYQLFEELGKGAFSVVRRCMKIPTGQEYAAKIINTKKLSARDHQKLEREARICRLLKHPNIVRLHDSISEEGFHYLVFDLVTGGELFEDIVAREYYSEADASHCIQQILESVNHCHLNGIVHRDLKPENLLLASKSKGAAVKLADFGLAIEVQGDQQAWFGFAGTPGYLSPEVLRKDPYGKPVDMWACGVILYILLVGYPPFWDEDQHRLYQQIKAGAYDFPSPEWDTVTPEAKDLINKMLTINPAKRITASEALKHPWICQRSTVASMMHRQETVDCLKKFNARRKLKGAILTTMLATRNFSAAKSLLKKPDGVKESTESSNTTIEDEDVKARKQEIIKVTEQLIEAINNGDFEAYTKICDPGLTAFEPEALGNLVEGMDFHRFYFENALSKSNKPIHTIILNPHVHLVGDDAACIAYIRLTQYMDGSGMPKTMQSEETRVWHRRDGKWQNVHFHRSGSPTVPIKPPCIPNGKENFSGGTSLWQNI

SMILES: Cc1n[nH]c2ccc(-c3cncc(OCC(N)Cc4ccc(Cl)c(Cl)c4)c3)cc12 (configuration not stated)
- Ki [1]: 12.6 nM (active)
- Ki [2]: 1000 nM (active)
- Ki [3]: 251 nM (active)
- Ki [4]: 25.1 nM (active)
- Ki [5]: 398 nM (active)
- Ki [6]: 1260 nM (active)
- Ki [7]: 2510 nM (active)

SMILES: [2H]C([2H])([2H])Oc1cccc(C(C)NC(=O)c2sc(-c3ccncc3)nc2C)c1 (configuration not stated)
- Ki [8]: > 2000 nM (inactive)
- Ki [9]: > 2510 nM (inactive)
- Ki [10]: > 3160 nM (inactive)

SMILES: COc1ccc(-n2c(NC(=O)c3ccco3)c(C#N)c3nc4ccccc4nc32)cc1
- IC50 [11]: 4070 nM (active)
- IC50 [12]: 7570 nM (active)

— ChEMBL document CHEMBL1201862, “PubChem BioAssay data set” (2004)
